Reference: patent publication US5041581A (priority 1986, dated 1991)

Assays:
L1210 mouse leukemia = assay: In vivo antitumor activity against L1210 mouse leukemia (L1210-BDF1 mouse model); parameters: species or system BDF1 mice; settings: for Optimal dose: L1210 ip/ip, single dose
Experimental: BDF1 mice were purchased from Charles River (Wilmington, MA). Groups of 6-8 mice weighing 18-22 gm were inoculated ip with 1×10^6 L1210 leukemia cells on day 0. L1210 cells were kept in DBA2 mice were weekly passages between the different experiments. All L-PT preparations were injected ip in volumes of 0.1 to 0.3 ml 24 hours after tumor inoculation. Two different schedules of administration were used: a single injection on day 1 or an injection on days 1, 5 and 9 (multiple). […] Clinical behavior and survival times were monitored until all animals had died. Results were expressed as % T/C (median survival time of treated mice/median survival time of control mice ×100) and number of long-term survivors. Mice living more than 30 days and more than 60 days were considered to be long-term survivors for the single and multiple injection schedule respectively. All L-PT preparations tested for antitumor activity were prepared under sterile conditions on the same day of the experiment.
The antitumor activity against L-1210 murine leukemia of the different L-PT analogs was assessed in an L-1210-BDF, mouse model (tumor inoculation day 0, treatment day 1, ip) as described earlier herein.
These liposome-encapsulated compounds were tested to determine their optimal dose and effectiveness as inhibitors of in vivo tumor growth as described in Example 12.

[1] = Encapsulation efficiency of platinum complexes in multilamellar liposomes (UV spectrophotometry / x-ray fluorescence); type: physicochemical; settings: for Encapsulation Efficiency: lipophilic cisplatin analogues incorporated in liposomes (Table 12); for % Encapsulation Efficiency: liposomes DMPC:DMPG 7:3, mean of at least three experiments
Experimental: Multilamellar lipid vesicles (MLV) or liposomes containing incorporated platinum complexes (PT) of the above descriptions were prepared as previously described for other compounds (Lopez-Berestein et al (4)(1984) Clin. Exp. Metastasis V 2 pp 127-137 and Lopez-Berestein et al (1983) J Inf Dis V 147 pp 937-945). In brief, chloroform solutions of lipids (at the desired molar ratio) and PT were mixed at a lipid-PT ratio of 15:1 and the chloroform was evaporated in a rotary evaporator (Buchi, Brinkmann Instruments, Westbury, NY). The dried lipid film obtained, containing PT, was then dispersed with an aqueous solution (0.9% NaCl in water) by vigorous handshaking. The suspension was subsequently centrifuged at 30,000 ×g for 45 minutes, the supernatant was discarded, and the pellet containing PT was resuspended in 0.9% NaCl solution.
Elemental platinum (Pt) was determined in the liposome suspension and the pellet by x-ray fluorescence as previously reported (Seifert et al (1979) Proc. Amer. Ass'n. Cancer Res. V 20 p. 168) in the Department of Analytical Chemistry, The University of Texas Medical School at Houston, TX. The amount of platinum complex (PT) was determined in the supernatant by ultraviolet (UV) spectrophotometry using a wavelength of 224 nm. The EE was initially calculated with the two following formulas:
1. EE =Pt in pellet/total Pt in the initial liposome suspension
2. EE =Total Pt initially added - Pt in supernatant/total Pt initially added
The encapsulation efficiency for Pt-cyclopentenecarboxylato racemic-DACH was 66%. […] The encapsulation efficiency for Pt-neodecanoato-racemic-DACH, Pt-neodecanoatotrans-RR-DACH, Pt-n-decyliminodiacetato racemic DACH complexes are presented in Table I, shown below.
The compounds prepared in Examples 14-19 were tested for their efficiency of encapulation in liposomes by the methods described in Example 6. These liposome-encapsulated compounds were tested to determine their optimal dose and effectiveness as inhibitors of in vivo tumor growth as described in Example 12. The data in Table 12 reveal the resultant measurements.

[2] = Stability of L-PT in 0.9% saline at 4° C. for 14 days; type: physicochemical; settings: for Stability % (PT remaining in the liposomes): 0.9% saline, 4° C., DMPC:DMPG 7:3; for stability compared with Pt cyclopentenecarboxylato-racemic-DACH, in words: saline
Experimental: The stability of the different liposome-PT (L-PT) preparations in 0.9% NaCl solution at 4° C., and 50% human (AB) serum in 0.9% NaCl solution at 37° C. was determined using the following formula: [formula]
The EE values used in the stability determinations were obtained by measuring PT in the supernatants by UV spectrophotometry (0.9% NaCl solution) or x-ray fluorescence (50% human AB serum). The stability in 0.9% NaCl solution was determined up to 14 days after the initial preparation. In addition, the L-PT preparations were observed microscopically on day 14 to check the morphology of the vesicles. The stability in 50% human AB serum was determined up to 18 hours after incubation.
Preparations were suspended in 0.9% saline and incubated at 4° C. for 14 days. The liposome compositions were observed by light microscopy and the amount of free PT in the saline determined. […] Free PT was determined and stability was calculated as the percentage PT remaining in the liposomes.

[3] = Solubility in organic solvents and water; type: physicochemical; settings: for solubility in methanol and chloroform, in words: chloroform (and other organic solvents where stated)
[4] = Nephrotoxicity: blood urea nitrogen (BUN) 96 hours after ip LD50 dose; type: in vivo, CD1 Swiss mice; settings: for BUN at 96 hours: ip single injection at LD50 dose
Experimental: All L-PT preparations tested for toxicity were prepared under sterile conditions on the same day of the experiments.

L1210 cells = assay: In vitro growth inhibition of L1210 leukemic cells (96 hours, Coulter Counter); type: cell-based, murine; settings: Exp. 1; 5760 min
Experimental: Four ml of cell suspension were added to culture tubes and the appropriate concentration of free PT or L-PT was added (from 0.01 micro g/ml to 10 micro g/ml final concentration). After 96 hours, the cell concentration of control and experimental cultures were calculated with a Coulter Counter (Coulter Electronics, Hialeah, FLA) and the percent inhibition calculated. The following preparations were tested: free PT, DMPG, DMPC:DMPG 7:3, DMPG-PT and DMPC:DMPG 7:3-PT.

[5] = Acute toxicity (LD10, LD50, LD90) in CD-1 Swiss mice; type: in vivo
Experimental: Toxicology studies were carried out in 6-8 weeks old CD-1 Swiss mice weighing 22-25 gm and purchased from The University of Texas Science Park (Bastrop, TX). Free PT in suspension in hydroxypropylcellulose, DMPG, DMPG-PT, DMPC:DMPG 7:3 and DMPC:DMPG 7:3-PT were administered intraperitoneally (ip) in volumes ranging between 0.1 and 0.3 ml. DMPC:DMPG 7:3-PT was also administered intravenously (iv) in one single injection or in 3 daily injections. The clinical behavior and the survival times were monitored on a daily basis.

[6] = L1210 ip/ip single dose at the optimal dose, incorporated in liposomes (Table 12)
[7] = incorporated in liposomes (Table 12)
[8] = 25 mg/kg ip day 1, liposomes DMPC:DMPG 7:3 (Table 8)

## Cis-bis-neodecanoato-trans-R,R-1,2-diaminocyclohexane-platinum
L1210 mouse leukemia; [6]
  % T/C: 170%
L1210 mouse leukemia; [7]
  Optimal dose: 25 mg/kg
[1]
  Encapsulation Efficiency: 93%

## cis-bis-neodecanoato-RR-DACH-Platinum (II) [Pt-neodecanoato-trans-RR-DACH]
L1210 mouse leukemia; [8]
  % T/C: 175%
[2]
  Stability % (PT remaining in the liposomes): 99%
[1]
  % Encapsulation Efficiency: 99%

## CCCCCCCCCC(=O)[O][Pt]1([O]C(=O)CCCCCCCCC)[NH][C@@H]2CCCC[C@H]2[NH]1 [cis-bis-decanoato-trans-R,R-1,2-diaminocyclohexane-platinum II]
L1210 mouse leukemia; [6]
  % T/C: 187%
L1210 mouse leukemia; [7]
  Optimal dose: 50 mg/kg

## O=C([O][Pt]1([O]C(=O)C2=CCCC2)[NH][C@@H]2CCCC[C@H]2[NH]1)C1=CCCC1 [Pt-cyclopentenecarboxylato trans-RR-DACH, cis-bis-cyclopentenecarboxylato-1,2-trans-RR-DACH-Pt (II)-3H2 O]
L1210 mouse leukemia; [8]
  % T/C: 187%
[2]
  Stability % (PT remaining in the liposomes): 94%
  stability compared with Pt cyclopentenecarboxylato-racemic-DACH, in words: greater stability

## CCCCCCCCCCN1CC(=O)[O][Pt]2([NH][C@@H]3CCCC[C@H]3[NH]2)[O]C(=O)C1 [Pt-N-decyliminodiacetato-trans-RR-DACH, cis-bis-n-decyliminodiacetato-trans-RR-DACH-Pt (II)]
L1210 mouse leukemia; [8]
  % T/C: 162%
[2]
  Stability % (PT remaining in the liposomes): 100%

## cis-bis-neodecanoato-bis-diamine-platinum (II)
L1210 mouse leukemia; [6]
  % T/C: 200%
L1210 mouse leukemia; [7]
  Optimal dose: 50 mg/kg
[3]
  solubility in methanol and chloroform, in words: highly soluble
  solubility in water, in words: insoluble
[1]
  Encapsulation Efficiency: 95%

## cis-bis-neodecanoato-ethylenediamine-platinum(II)
L1210 mouse leukemia; [6]
  % T/C: 144%
L1210 mouse leukemia; [7]
  Optimal dose: 75 mg/kg

## O=C([O][Pt]1([O]C(=O)C2=CCCC2)[NH]C2CCCCC2[NH]1)C1=CCCC1 (mixture of isomers) [Pt-cyclopentenecarboxylato racemic-DACH mixture, cis-bis-cyclopentenecarboxylato-1,2-DACH-platinum (II)]
L1210 mouse leukemia; 6.25 mg/kg × 3 ip, days 1, 5 and 9
  % T/C: 168%
L1210 mouse leukemia; 12.5 mg/kg and 25 mg/kg, single ip dose, means of three experiments
  % T/C, mean: 162%
L1210 mouse leukemia; 12.5 mg/kg ip day 1, Exp. 1
  % T/C: 173%
L1210 mouse leukemia; 12.5 mg/kg ip day 1, Exp. 2
  % T/C: 136%
L1210 mouse leukemia; 12.5 mg/kg ip day 1, Exp. 3
  % T/C: 179%
L1210 mouse leukemia; 12.5 mg/kg × 3 ip, days 1, 5 and 9
  % T/C: 284%
L1210 mouse leukemia; 25 mg/kg ip day 1, Exp. 3
  % T/C: 168%
L1210 mouse leukemia; [8]
  % T/C: 213%
L1210 mouse leukemia; 25 mg/kg × 3 ip, days 1, 5 and 9
  % T/C: 158%
[4]; listed as Free PT
  BUN at 96 hours: 34.4 ± 9.6 mg %
[4]; listed as PT in suspension in hydroxypropylcellulose
  BUN at 96 hours: 34.4±9.6 mg %
[4]; ip, LD50 dose, 96 hours
  BUN elevation, in words: no significant BUN elevations
[2]
  Stability % (PT remaining in the liposomes): 89%
L1210 cells
  ID50: 1.3 micro g/ml
[5]; ip single injection (Table 4, CD1 mice), 20160 min
  LD50 Dose: 91 mg/kg
[5]; ip × 1
  LD10: 61 mg/kg
  LD90: 125 mg/kg
[5]; ip × 1, 20160 min
  LD50: 91 mg/kg

## cis-bis-neodecanoato-bis-isopropylamine-platinum (II)
L1210 mouse leukemia; [6]
  % T/C: 150%
L1210 mouse leukemia; [7]
  Optimal dose: 100 mg/kg
[3]
  solubility in methanol and chloroform, in words: highly soluble
  solubility in water, in words: insoluble
[1]
  Encapsulation Efficiency: 87%

## O=C([O][Pt]1([O]C(=O)C2=CCCC2)[NH][C@H]2CCCC[C@@H]2[NH]1)C1=CCCC1 [Pt-cyclopentenecarboxylato trans-SS-DACH]
L1210 mouse leukemia; [8]
  % T/C: 155%

## cis-bis-neodecanoatoDACH-platinum II [Pt-neodecanoato-racemic DACH-mixture]
L1210 mouse leukemia; 50 mg/kg ip day 1, liposomes DMPC:DMPG 7:3 (Table 8)
  % T/C: 187%
[3]
  solubility in methanol and chloroform, in words: highly soluble
  solubility in water, in words: insoluble
[2]
  Stability % (PT remaining in the liposomes): 100%
  stability compared with Pt cyclopentenecarboxylato-racemic-DACH, in words: greater stability
[1]
  % Encapsulation Efficiency: 99%

## cis-bis-neodecanoato-bis-cyclohexylamine-platinum (II)
L1210 mouse leukemia; [6]
  % T/C: 125%
L1210 mouse leukemia; [7]
  Optimal dose: 100 mg/kg
[3]
  solubility in methanol and chloroform, in words: highly soluble
  solubility in water, in words: insoluble
[1]
  Encapsulation Efficiency: 89%

## CCCCCCCCCCN1CC(=O)[O][Pt]2([NH]C3CCCCC3[NH]2)[O]C(=O)C1 (mixture of isomers) [Pt-N-decyliminodiaceto-racemic-DACH mixture, cis-bis-n-decyliminodiaceto-DACH-platinum (II)]
L1210 mouse leukemia; [8]
  % T/C: 150%
[2]
  Stability % (PT remaining in the liposomes): 100%
